# From US20240066131A1 (Protagonist Therapeutics, Inc., priority 2020, published 2024)
# Like-named read-outs stand apart in the source and are kept apart here. Starred links: 1 amine or outer side, 2 acyl side, 3 side chain; linkers in the order of their positions; H or OH if unused. Non-standard residues stand in square brackets, D forms with d. Residues, ends and D or L forms follow the SMILES beside them. Groups on a side chain read outwards from the residue. *: point of attachment. Ala(1H-tetrazol-5-yl) = N[C@@H](Cc1nnn[nH]1)C(=O)O; C18 diacid = O=C(O)CCCCCCCCCCCCCCCCC(=O)*; X8 = O=C([C@H](CCc1nn[nH]n1)N[*:1])[*:2]; Dip = N[C@H](C(=O)O)C(c1ccccc1)c1ccccc1; γGlu = O=C(O)[C@H](CCC(=O)[*:2])N[*:1]; His(τ-Me) = Cn1cnc(C[C@H](N)C(=O)O)c1; Gly(NCH2CH2Ph) = O=C(O)CNCCc1ccccc1; Palmitoyl = CCCCCCCCCCCCCCCC(=O)*; β3hF = N[C@H](CC(=O)O)Cc1ccccc1; NMeL = CN[C@@H](CC(C)C)C(=O)O; PEG4 = NCCOCCOCCOCCOCCC(=O)O; hLeu = CC(C)CC[C@H](N)C(=O)O; Lauroyl = CCCCCCCCCCCC(=O)*; Decanoyl = CCCCCCCCCC(=O)*; Isovaleryl = CC(C)CC(=O)*; AEEA = NCCOCCOCC(=O)O; NHBn = c1ccc(CN*)cc1; Ahx = NCCCCCC(=O)O; NHPr = CCCN*
# Target: T1, ferroportin (Homo sapiens, UniProt Q9NP59)
# T1 sequence (Q9NP59 1-571): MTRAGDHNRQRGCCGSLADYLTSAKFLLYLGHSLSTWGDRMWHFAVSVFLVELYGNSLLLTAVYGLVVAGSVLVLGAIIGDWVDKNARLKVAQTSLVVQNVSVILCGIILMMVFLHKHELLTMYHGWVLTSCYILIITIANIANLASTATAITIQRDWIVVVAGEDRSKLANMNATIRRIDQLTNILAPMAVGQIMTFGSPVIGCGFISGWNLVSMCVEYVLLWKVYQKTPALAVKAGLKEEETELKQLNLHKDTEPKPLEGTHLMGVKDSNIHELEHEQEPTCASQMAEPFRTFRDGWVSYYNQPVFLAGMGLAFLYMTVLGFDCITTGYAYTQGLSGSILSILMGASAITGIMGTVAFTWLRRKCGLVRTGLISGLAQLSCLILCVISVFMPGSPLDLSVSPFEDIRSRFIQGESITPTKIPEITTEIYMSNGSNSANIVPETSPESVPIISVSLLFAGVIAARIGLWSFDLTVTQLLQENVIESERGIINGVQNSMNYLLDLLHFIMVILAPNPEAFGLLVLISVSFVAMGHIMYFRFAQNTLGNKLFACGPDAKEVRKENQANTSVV
# Assay: FPN activity assay: internalization/degradation of ferroportin-GFP in stably transfected HEK293 cells (loss of GFP fluorescence)
# Format: cell-based
# Method: Following internalization, the ferroporin protein is degraded.
# A retro inverse peptide is a peptide with a reversed sequence in all D amino acids. An example is that Hy-Glu-Thr-His-NH2 becomes Hy-DHis-DThr-DGlu-NH2. The EC50 of these reference compounds for ferroportin internalization/degradation was determined according to the FPN activity assay described above. These peptides served as control standards.
# [1] = ferroportin-GFP HEK293 cells, compound incubated at least 18 hours, read-out: FPN IC50
DC50 [1] [nM],"DC50 (Table 6A, read-out: FPN EC50) [nM]",SMILES,also measured
1070,,CCCCCCCCCCCC(=O)NCCCCCC(=O)NCCCC[C@H](NC(=O)[C@@H](NC(=O)[C@H](C)NC(=O)[C@@H]1CCCN1C(=O)[C@H](Cc1ccccc1)NC(=O)[C@H](Cc1c[nH]cn1)NC(=O)[C@@H](NC(=O)[C@H](CCC(=O)O)NC(=O)CC(C)C)[C@@H](C)O)[C@@H](C)CC)C(=O)N[C@@H](Cc1ccccc1)C(=O)N[C@@H](CCC(=O)O)C(=O)N1CCC[C@H]1C(=O)N[C@@H](CCCNC(=N)N)C(=O)N[C@@H](CO)C(=O)N[C@@H](CCCCN)C(=O)NCC(=O)N[C@@H](C)C(=O)N[C@@H](CCCCN)C(N)=O [compound 243] (Isovaleryl-ETHFPAIK([Ahx-Lauroyl])FEPRSKGAK-NH2),
,150,CCCCCCCCCCCCCCCC(=O)NCCCCCC(=O)NCCCC[C@H](NC(=O)[C@@H](NC(=O)[C@H](CCC(C)C)NC(=O)[C@@H]1CCCN1C(=O)[C@@H](NC(=O)[C@H](Cc1c[nH]cn1)NC(=O)[C@@H](NC(=O)[C@H](CCC(=O)O)NC(=O)CC(C)C)[C@@H](C)O)C(c1ccccc1)c1ccccc1)[C@@H](C)CC)C(=O)N[C@H](CC(N)=O)Cc1ccccc1 [compound 121] (Isovaleryl-ETH[Dip]P[hLeu]IK([Ahx-Palmitoyl])[β3hF]-NH2),
86.8,,CC(C)CC(=O)N[C@@H](CCC(=O)O)C(=O)N[C@H](C(=O)N[C@@H](Cc1c[nH]cn1)C(=O)N[C@H](C(=O)N1CCC[C@H]1C(=O)N[C@H](CCCCNC(=O)COCCOCCNC(=O)COCCOCCNC(=O)CCCCCNC(=O)CCCCCCCCCCCCCCCCC(=O)O)C(=O)N[C@H](CC(N)=O)Cc1ccccc1)C(c1ccccc1)c1ccccc1)[C@@H](C)O [compound 214],
,46.3,CCCCCCCCCCCCCCCC(=O)NCCCCCC(=O)NCCCC[C@H](NC(=O)C[C@H](Cc1ccccc1)NC(=O)[C@@H](CCCCN)NC(=O)[C@@H](NC(=O)[C@H](CO)NC(=O)[C@@H]1CCCN1C(=O)[C@@H](NC(=O)[C@H](Cc1c[nH]cn1)NC(=O)[C@@H](NC(=O)[C@H](CCC(=O)O)NC(=O)CC(C)C)[C@@H](C)O)C(c1ccccc1)c1ccccc1)[C@@H](C)CC)C(N)=O [compound 20] (Isovaleryl-ETH[Dip]PSI[dK][β3hF]K([Ahx-Palmitoyl])-NH2),
,> 3000,CC[C@H](C)[C@H](NC(=O)[C@H](C)NC(=O)[C@@H]1CCCN1C(=O)[C@@H](NC(=O)[C@H](Cc1cn(C)cn1)NC(=O)[C@@H](NC(=O)[C@H](CCc1nn[nH]n1)NC(=O)CC(C)C)[C@@H](C)O)C(c1ccccc1)c1ccccc1)C(=O)N[C@@H](CCCCNC(C)=O)C(=O)N[C@H](CC(=O)N[C@H](CCCCN)C(N)=O)Cc1ccccc1 [compound 41] (Isovaleryl-[X8]T[His(τ-Me)][Dip]PAIK(Ac)[β3hF][dK]-NH2),
,24.9,CCCCCCCCCCCCCCCC(=O)NCCCCCC(=O)NCCCC[C@H](NC(=O)C[C@H](Cc1ccccc1)NC(=O)[C@@H](CCCCN)NC(=O)[C@@H](NC(=O)[C@H](C)NC(=O)[C@@H]1CCCN1C(=O)[C@@H](NC(=O)[C@H](Cc1c[nH]cn1)NC(=O)[C@@H](NC(=O)[C@H](CCC(=O)O)NC(=O)CC(C)C)[C@@H](C)O)C(c1ccccc1)c1ccccc1)[C@@H](C)CC)C(N)=O [compound 3] (Isovaleryl-ETH[Dip]PAI[dK][β3hF]K([Ahx-Palmitoyl])-NH2),
> 3000,,CCCNC(=O)[C@H](CCCCNC(=O)COCCOCCNC(=O)COCCOCCNC(=O)CC[C@H](NC(=O)CCCCCCCCCCCCCCCCC(=O)O)C(=O)O)NC(=O)[C@@H](NC(=O)[C@H](Cc1c[nH]cn1)NC(=O)[C@@H](NC(=O)[C@H](CC(C)C)NC(=O)CC(C)C)[C@@H](C)O)C(c1ccccc1)c1ccccc1 [compound 228] (Isovaleryl-LTH[Dip]K([AEEA-AEEA-γGlu-C18 diacid])-NHPr),
,32.4,CCCCCCCCCCCCCCCC(=O)NCCCCCC(=O)NCCCC[C@H](NC(=O)[C@@H](NC(=O)[C@H](CC(C)C)NC(=O)[C@@H]1CCCN1C(=O)[C@@H](NC(=O)[C@H](Cc1c[nH]cn1)NC(=O)[C@@H](NC(=O)[C@H](CCC(=O)O)NC(=O)CC(C)C)[C@@H](C)O)C(c1ccccc1)c1ccccc1)[C@@H](C)CC)C(=O)N(C)[C@@H](CC(C)C)C(N)=O [compound 140] (Isovaleryl-ETH[Dip]PLIK([Ahx-Palmitoyl])[NMeL]-NH2),
,31.9,CCCCCCCCCCCCCCCC(=O)NCCCCCC(=O)NCCCC[C@H](NC(=O)[C@@H](NC(=O)[C@H](C)NC(=O)[C@@H]1CCCN1C(=O)[C@@H](NC(=O)[C@H](Cc1c[nH]cn1)NC(=O)[C@@H](NC(=O)[C@H](CCC(=O)O)NC(=O)CC(C)C)[C@@H](C)O)C(c1ccccc1)c1ccccc1)[C@@H](C)CC)C(=O)N(CCc1ccccc1)CC(N)=O [compound 93] (Isovaleryl-ETH[Dip]PAIK([Ahx-Palmitoyl])[Gly(NCH2CH2Ph)]-NH2),
,1040,CC[C@H](C)[C@H](NC(=O)[C@H](C)NC(=O)[C@@H]1CCCN1C(=O)[C@@H](NC(=O)[C@H](Cc1c[nH]cn1)NC(=O)[C@@H](NC(=O)[C@H](CCC(=O)O)NC(=O)CC(C)C)[C@@H](C)O)C(c1ccccc1)c1ccccc1)C(=O)N[C@@H](CCCCNC(C)=O)C(N)=O [compound 12] (Isovaleryl-ETH[Dip]PAIK(Ac)-NH2),
> 3000,,CCCCCCCCCC(=O)NCCCCCC(=O)NCCCC[C@H](NC(=O)[C@@H](NC(=O)[C@H](C)NC(=O)[C@@H]1CCCN1C(=O)[C@H](Cc1ccccc1)NC(=O)[C@H](Cc1c[nH]cn1)NC(=O)[C@@H](NC(=O)[C@H](CCC(=O)O)NC(=O)CC(C)C)[C@@H](C)O)[C@@H](C)CC)C(=O)N[C@@H](Cc1ccccc1)C(=O)N[C@@H](CCC(=O)O)C(=O)N1CCC[C@H]1C(=O)N[C@@H](CCCNC(=N)N)C(=O)N[C@@H](CO)C(=O)N[C@@H](CCCCN)C(=O)NCC(=O)N[C@@H](C)C(=O)N[C@@H](CCCCN)C(N)=O [compound 244] (Isovaleryl-ETHFPAIK([Ahx-Decanoyl])FEPRSKGAK-NH2),
> 3000,,CC(C)CC(=O)N[C@@H](CC(C)C)C(=O)N[C@H](C(=O)N[C@@H](Cc1c[nH]cn1)C(=O)N[C@H](C(=O)N[C@@H](CCCCNC(=O)COCCOCCNC(=O)COCCOCCNC(=O)CC[C@H](NC(=O)CCCCCCCCCCCCCCCCC(=O)O)C(=O)O)C(=O)NCc1ccccc1)C(c1ccccc1)c1ccccc1)[C@@H](C)O [compound 227] (Isovaleryl-LTH[Dip]K([AEEA-AEEA-γGlu-C18 diacid])-NHBn),
,> 3000,CCCCCCCCCCCCCCCC(=O)NCCCCCC(=O)NCCCC[C@H](NC(=O)[C@@H](NC(=O)[C@H](C)NC(=O)[C@@H]1CCCN1C(=O)[C@@H](NC(=O)[C@H](Cc1cn(C)cn1)NC(=O)[C@@H](NC(=O)[C@H](CC(C)C)NC(=O)CC(C)C)[C@@H](C)O)C(c1ccccc1)c1ccccc1)[C@@H](C)CC)C(=O)N[C@H](CC(N)=O)Cc1ccccc1 [compound 45] (Isovaleryl-LT[His(τ-Me)][Dip]PAIK([Ahx-Palmitoyl])[β3hF]-NH2),
,32.7,CCCCCCCCCCCCCCCC(=O)NCCOCCOCCOCCOCCC(=O)NCCCC[C@H](NC(=O)[C@@H](NC(=O)[C@H](C)NC(=O)[C@@H]1CCCN1C(=O)[C@@H](NC(=O)[C@H](Cc1c[nH]cn1)NC(=O)[C@@H](NC(=O)[C@H](CCC(=O)O)NC(=O)CC(C)C)[C@@H](C)O)C(c1ccccc1)c1ccccc1)[C@@H](C)CC)C(=O)N[C@H](CC(N)=O)Cc1ccccc1 [compound 95] (Isovaleryl-ETH[Dip]PAIK([PEG4-Palmitoyl])[β3hF]-NH2),
37.4,,CCCCCCCCCCCCCCCC(=O)NCCCCCC(=O)NCCCC[C@H](NC(=O)[C@@H](NC(=O)[C@H](CC(C)C)NC(=O)[C@@H]1CCCN1C(=O)[C@@H](NC(=O)[C@H](Cc1c[nH]cn1)NC(=O)[C@@H](NC(=O)[C@H](CCC(=O)O)NC(=O)CC(C)C)[C@@H](C)O)C(c1ccccc1)c1ccccc1)[C@@H](C)CC)C(=O)N[C@@H](CC(C)C)C(N)=O [compound 205] (Isovaleryl-ETH[Dip]PLIK([Ahx-Palmitoyl])L-NH2),
,> 3000,CC[C@H](C)[C@H](NC(=O)[C@H](C)NC(=O)[C@@H]1CCCN1C(=O)[C@@H](NC(=O)[C@H](Cc1cn(C)cn1)NC(=O)[C@@H](NC(=O)[C@H](Cc1nn[nH]n1)NC(=O)CC(C)C)[C@@H](C)O)C(c1ccccc1)c1ccccc1)C(=O)N[C@@H](CCCCNC(C)=O)C(=O)N[C@H](CC(=O)N[C@H](CCCCN)C(=O)N[C@@H](C)C(N)=O)Cc1ccccc1 [compound 39] (Isovaleryl-[Ala(1H-tetrazol-5-yl)]T[His(τ-Me)][Dip]PAIK(Ac)[β3hF][dK]A-NH2),
,,CCCCCCCCCCCCCCCC(=O)NCCCCCC(=O)NCCCC[C@H](NC(=O)C[C@H](Cc1ccccc1)NC(=O)[C@@H](CCCCN)NC(=O)[C@@H](NC(=O)[C@H](C)NC(=O)[C@@H]1CCCN1C(=O)[C@H](C)NC(=O)[C@H](Cc1c[nH]cn1)NC(=O)[C@@H](NC(=O)[C@H](CCC(=O)O)NC(=O)CC(C)C)[C@@H](C)O)[C@@H](C)CC)C(=O)N[C@H](CCCCN)C(=O)N[C@@H](C)C(N)=O [compound 151] (Isovaleryl-ETHAPAI[dK][β3hF]K([Ahx-Palmitoyl])[dK]A-NH2),"DC50 (Table 6B, read-out: FPN IC50): > 3000 nM"
